Assays:
Syk = Syk (Homo sapiens, UniProt P43405); test: Syk enzyme inhibition (FRET); assay type: biochemical
Outline: (§1)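 2 hr RT enzyme + cpd (added solns 4/0.4/0.04/0.004 μg/mL); + FRET peptide (8 μM soln) + ATP soln (c-Src 800 μM, Syk 60 μM), 1 hr; protease development 1 hr; read donor/acceptor emission ratio.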

[1] = system: IL-8 release, d-U937 cells; test: LPS-induced IL-8 release in d-U937 cells; assay type: cell-based; details: Homo sapiens, dU937; Table 4c1; read-out: LPS Induced Release of Cytokine in d-U937 Cells, IL-8 IC50
Outline: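 IL-8 release after a 4 hr challenge with LPS (0.1 μg/mL, E. coli 0111:B4) following a 2 hr compound pretreatment. Cells were human U937 monocytes differentiated to macrophage-type with PMA 100 ng/mL for 48–72 hr. Relative 50% effective concentration derived from concentration–response data.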

PBMC cells = test: Cell mitosis assay; assay type: cell-based; details: Homo sapiens, read-out: % Inhibition of mitosis in PBMC cells at 5 μg/mL
Protocol: PBMCs from healthy subjects are separated from whole blood (Quintiles, London, UK) using a density gradient (Histopaque®-1077, Sigma-Aldrich, Poole, UK). The PBMCs (3 million cells per sample) are subsequently treated with 2% PHA (Sigma-Aldrich, Poole, UK) for 48 hr, followed by a 20 hr exposure to varying concentrations of test compounds. At 2 hr before collection, PBMCs are treated with demecolcine (0.1 μg/mL; Invitrogen, Paisley, UK) to arrest cells in metaphase. […] Fluorescence is observed using an ATTUNE flow cytometer (Invitrogen, Paisley, UK), gating for lymphocytes.

cSrc = cSrc (Homo sapiens, UniProt P12931); test: c-Src enzyme inhibition (FRET); assay type: biochemical
Chain of cSrc (P12931 whole entry): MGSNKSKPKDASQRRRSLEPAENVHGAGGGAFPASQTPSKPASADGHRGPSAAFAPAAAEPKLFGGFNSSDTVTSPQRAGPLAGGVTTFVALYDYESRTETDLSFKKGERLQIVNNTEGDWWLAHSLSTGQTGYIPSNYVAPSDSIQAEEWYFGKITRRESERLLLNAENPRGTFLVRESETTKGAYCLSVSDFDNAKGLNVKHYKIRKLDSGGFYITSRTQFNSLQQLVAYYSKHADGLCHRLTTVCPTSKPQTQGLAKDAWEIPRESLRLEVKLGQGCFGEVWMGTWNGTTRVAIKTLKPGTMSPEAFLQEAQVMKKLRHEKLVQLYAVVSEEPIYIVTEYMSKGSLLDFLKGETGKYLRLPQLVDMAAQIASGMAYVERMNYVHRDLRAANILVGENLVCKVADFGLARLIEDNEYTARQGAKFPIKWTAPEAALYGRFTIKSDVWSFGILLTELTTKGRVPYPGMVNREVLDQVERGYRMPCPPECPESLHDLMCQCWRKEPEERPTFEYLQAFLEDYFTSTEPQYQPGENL
Outline: as §1

GSK3α [2] = target: T1, GSK3α (Homo sapiens, UniProt P49840); test: GSK 3α enzyme inhibition (FRET), Method 1; assay type: biochemical; details: Table 4a1
T1 sequence (P49840 whole entry): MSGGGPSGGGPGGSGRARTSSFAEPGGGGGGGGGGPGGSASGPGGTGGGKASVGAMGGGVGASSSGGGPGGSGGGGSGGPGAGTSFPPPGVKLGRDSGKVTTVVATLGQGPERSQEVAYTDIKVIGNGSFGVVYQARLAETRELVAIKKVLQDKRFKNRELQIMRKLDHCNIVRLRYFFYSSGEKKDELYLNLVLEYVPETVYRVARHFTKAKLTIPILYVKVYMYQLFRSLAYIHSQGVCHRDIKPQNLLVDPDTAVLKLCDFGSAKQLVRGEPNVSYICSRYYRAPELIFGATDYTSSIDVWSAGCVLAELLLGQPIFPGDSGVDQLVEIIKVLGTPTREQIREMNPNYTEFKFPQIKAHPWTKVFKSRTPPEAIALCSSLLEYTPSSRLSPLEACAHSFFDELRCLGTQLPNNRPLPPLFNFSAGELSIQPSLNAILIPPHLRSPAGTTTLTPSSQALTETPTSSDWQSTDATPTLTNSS
Outline: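 Compounds are tested at added-solution levels of 4, 0.4, 0.04 or 0.004 μg/mL against GSK3α, with a 2 hr RT preincubation. Kinase reaction with FRET peptide and ATP (8 μM and 40 μM as added) runs 1 hr, and phosphorylation is judged by the protease-sensitive FRET ratio.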

[3] = system: TNFα release, d-U937 cells; test: LPS-induced TNFα release in d-U937 cells; assay type: cell-based; details: Homo sapiens, dU937; relative to 10 μg/mL BIRB796; Table 4c1; read-out: LPS Induced Release of Cytokine in d-U937 Cells, TNFα REC50
Outline: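 Sandwich ELISA quantifies cytokine in supernatants after 4 hr LPS challenge (0.1 μg/mL) of PMA-differentiated (100 ng/mL, 48–72 hr) U937 macrophages given compound 2 hr beforehand. REC50 derived from concentration-response curve, inhibition calculated relative to vehicle.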

[4] = system: ICAM-1 expression, BEAS2B cells; test: Poly I:C-induced ICAM-1 expression in BEAS2B cells; assay type: cell-based; details: Homo sapiens, BEAS-2B; read-out: Poly IC induced ICAM1 in BEAS2B, IC50
Outline: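 Cell-based ELISA for surface ICAM-1 in human BEAS2B cells 18 h after transfection with the RNA-virus mimic poly I:C (1 μg/mL, with Oligofectamine), compounds added 2 h beforehand. OD450–655 divided by Crystal Violet OD595 per well; percent inhibition relative to vehicle.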

d-U937 cells = test: Cell viability: MTT assay; assay type: cell-based, human; details: 1 μg/mL
Outline: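 MTT reduction (1 h, DMSO solubilisation, A550) measured after compound treatment at 1 or 10 μg/mL of differentiated U937 cells for 4 h (5% FCS RPMI1640) or 24 h (10% FCS). Percentage viability loss computed relative to 0.5% DMSO vehicle, with increases tabulated as negative values.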

IL-2 release, PBMCs = test: IL-2 release in CD3/CD28 stimulated PBMC cells; assay type: cell-based; details: Homo sapiens, read-out: IC50 Values for Inhibition of Cytokine Release, PBMCs, IL-2
Protocol: (§2) (c) IL-2 and IFN Gamma Release in CD3/CD28 Stimulated PBMC Cells
(§3) PBMCs from healthy subjects are separated from whole blood using a density gradient (Lymphoprep, Axis-Shield Healthcare). Cells are added to a 96 well plate pre-coated with a mixture of […] monoclonal antibodies (0.3 ug/ml eBioscience and 3 ug/ml BD Pharmingen respectively). Compound at the desired concentration is then added to the wells and the plate left for 3 days under normal tissue culture conditions. Supernatants are harvested and IL-2 and IFN gamma release determined by Sandwich ELISA (Duo-set, R&D System). The IC50 is determined from the dose response curve.

GSK3α [5] = target: T1, GSK3α; test: GSK 3α enzyme inhibition (FRET), Method 2; assay type: biochemical; details: Table 4a2, different laboratory
IL-8 release, PBMCs = test: LPS-induced IL-8 release in PBMC cells; assay type: cell-based; details: Homo sapiens, LPS stimulated, read-out: IC50 Values for Inhibition of Cytokine Release, PBMCs, IL-8
Protocol: (b) LPS-Induced TNFα/IL-8 Release in PBMC Cells
Peripheral blood mononuclear cells (PBMCs) from healthy subjects are separated from whole blood using a density gradient (Lymphoprep, Axis-Shield Healthcare). The PBMCs are seeded in 96 well plates and treated with compounds at the desired concentration for 2 hours before addition of 1 ng/ml LPS (Escherichia Coli 0111:B4 from Sigma Aldrich) for 24 hours under normal tissue culture conditions (37° C., 5% CO2). The supernatant is harvested for determination of […] concentrations by sandwich ELISA (Duo-set, R&D systems) and read on the fluorescence microplate reader (Varioskan® Flash, ThermoFisher Scientific).

IFN gamma release, PBMCs = test: IFN gamma release in CD3/CD28 stimulated PBMC cells; assay type: cell-based; details: Homo sapiens, read-out: IC50 Values for Inhibition of Cytokine Release, PBMCs, IFNγ
Protocol: as §2, §3

[6] = Table 4a2, different laboratory

Compound | IC50 (Syk; Table 4a1) | IC50 [1] | inhibition at 5 µg/mL (PBMC cells) | IC50 (cSrc; Table 4a1) | IC50 (GSK3α [2]) | EC50 [3] | IC50 [4] | Cell viability at time point in d-U937 cells, 4 h (d-U937 cells) | Cell viability at time point in d-U937 cells, 24 h (d-U937 cells) | IC50 (Syk; [6]) | IC50 (IL-2 release, PBMCs) | IC50 (cSrc; [6]) | IC50 (GSK3α [5]) | IC50 (IL-8 release, PBMCs) | IC50 (IFN gamma release, PBMCs)
COc1cc(Nc2nccc(Oc3ccc(NC(=O)Nc4cc(C(C)C)nn4-c4ccc(C)cc4)c4ccccc34)n2)cc(C(=O)N2CCOCC2)c1 [Example 12, 1-(3-Isopropyl-1-(p-tolyl)-1H-pyrazol-5-yl)-3-(4-((2-((3-methoxy-5-(morpholine-4-carbonyl)phenyl)amino)pyrimidin-4-yl)oxy)naphthalen-1-yl)urea] | 16 nM | 1 nM | 27.8% | 5 nM | 509 nM | 0.5 nM | 2.5 nM | −ve (−ve and +ve indicate that the value is below and above respectively, the no significant effect threshold, defined as 30% inhibition at 1 μg/mL at the time point indicated) | −ve (−ve and +ve indicate that the value is below and above respectively, the no significant effect threshold, defined as 30% inhibition at 1 μg/mL at the time point indicated) |  |  |  |  |  | 
Cc1ccc(-n2nc(C(C)C)cc2NC(=O)Nc2ccc(Oc3ccnc(Nc4cc(C)cc(C(=O)NCCN5CCOCC5)c4)n3)c3ccccc23)cc1 [Example 44, 3-((4-((4-(3-(3-isopropyl-1-(p-tolyl)-1H-pyrazol-5-yl)ureido)naphthalen-1-yl)oxy)pyrimidin-2-yl)amino)-5-methyl-N-(2-morpholinoethyl)benzamide] | 17 nM | 0.3 nM | 37.2% | 9 nM | 3950 nM | 0.2 nM | 1.9 nM | −ve (−ve and +ve indicate that the value is below and above respectively, the no significant effect threshold, defined as 30% inhibition at 1 μg/mL at the time point indicated) | −ve (−ve and +ve indicate that the value is below and above respectively, the no significant effect threshold, defined as 30% inhibition at 1 μg/mL at the time point indicated) |  |  |  |  |  | 
COc1ccc(-n2nc(C(C)C)cc2NC(=O)Nc2ccc(Oc3ccnc(Nc4cc(OC)cc(C(=O)NCCO)c4)n3)c3ccccc23)cc1 [Example 65, N-(2-hydroxyethyl)-3-((4-((4-(3-(3-isopropyl-1-(4-methoxyphenyl)-1H-pyrazol-5-yl)ureido)naphthalen-1-yl)oxy)pyrimidin-2-yl)amino)-5-methoxybenzamide] | 61 nM | 0.6 nM | 36.7% | 8 nM | > 14200 nM | 1.7 nM | 8.3 nM | −ve (−ve and +ve indicate that the value is below and above respectively, the no significant effect threshold, defined as 30% inhibition at 1 μg/mL at the time point indicated) | −ve (−ve and +ve indicate that the value is below and above respectively, the no significant effect threshold, defined as 30% inhibition at 1 μg/mL at the time point indicated) |  |  |  |  |  | 
C#Cc1cc(Nc2nccc(Oc3ccc(NC(=O)Nc4cc(C(C)(C)C#N)nn4-c4ccc(C)cc4)c4ccccc34)n2)cc(C(=O)NCCN2CCOCC2)c1 [Example 78, 3-((4-((4-(3-(3-(2-Cyanopropan-2-yl)-1-(p-tolyl)-1H-pyrazol-5-yl)ureido)-naphthalen-1-yl)oxy)pyrimidin-2-yl)amino)-5-ethynyl-N-(2-morpholinoethyl)benzamide] |  |  | 2.1% |  |  |  |  |  |  | 23 nM | 27.3 nM | 8 nM | 2810 nM | 0.9 nM | 2.4 nM
C#Cc1cc(Nc2nccc(Oc3ccc(NC(=O)Nc4cc(C(C)(C)C)nn4-c4ccc(C)cc4)c4ccccc34)n2)cc(C(=O)NC(C)(C)CN2CCOCC2)c1 [Example 82, 3-((4-((4-(3-(3-(tert-Butyl)-1-(p-tolyl)-1H-pyrazol-5-yl)ureido)naphthalen-1-yl)oxy)pyrimidin-2-yl)amino)-5-ethynyl-N-(2-methyl-1-morpholinopropan-2-yl)-benzamide] |  |  | -6.3% |  |  |  |  |  |  |  | 37.4 nM |  | 12200 nM | 7.1 nM | 3.9 nM
C#Cc1cc(Nc2nccc(Oc3ccc(NC(=O)Nc4cc(C(C)(C)C)nn4-c4ccc(OC)cc4)c4ccccc34)n2)cc(C(=O)NCCOC)c1 [Example 84, 3-((4-((4-(3-(3-(tert-Butyl)-1-(4-methoxyphenyl)-1H-pyrazol-5-yl)ureido)-naphthalen-1-yl)oxy)pyrimidin-2-yl)amino)-5-ethynyl-N-(2-methoxyethyl)benzamide] |  |  | 0.5% |  |  |  |  |  |  | 33 nM | 16 nM | 15 nM | ≥ 13800 nM | 1.6 nM | 2.2 nM
C#Cc1cc(Nc2nccc(Oc3ccc(NC(=O)Nc4cc(C(C)(C)C)nn4-c4ccc(OC)cc4)c4ccccc34)n2)cc(C(=O)N[C@@H](C)COC)c1 [Example 85, (S)-3-((4-((4-(3-(3-(tert-Butyl)-1-(4-methoxyphenyl)-1H-pyrazol-5-yl)ureido)-naphthalen-1-yl)oxy)pyrimidin-2-yl)amino)-5-ethynyl-N-(1-methoxypropan-2-yl)-benzamide] |  |  | 6.6% |  |  |  |  |  |  | 92 nM | 27.3 nM | 33 nM | 7950 nM | 2.8 nM | 3.1 nM
